According to patent US20180200257A1, “METHODS FOR THE TREATMENT OF INFLAMMATORY DISORDERS” (Galapagos NV, priority 2015, published 2018):

System: subjects with moderately to severely active RA who have an inadequate response to methotrexate (MTX)
Assay: Study 1 (add-on to MTX) - Creatinine levels
Format: in vivo, human
Description: Double-blind, placebo-controlled add on study in subjects with moderately to severely active RA who have an inadequate response to methotrexate (MTX) (oral or parenteral).
595 subjects randomized to one of 6 dose regimens of Compound 1 (dosed as [Compound 1:HCl:3H2O]) (3 dose levels administered either once or twice daily) or placebo on top of each subject's stable dose of MTX.
Compound 1 (dosed as [Compound 1:HCl:3H2O]) is dosed for twelve weeks once daily (q.d.) (50 mg, 100 mg or 200 mg) or twice daily (b.i.d.) (25 mg, 50 mg or 100 mg); or placebo.
At Week 12, the subjects on placebo who have not achieved 20% improvement in swollen joint count (SJC66) and tender joint count (TJC68) are re-randomized automatically to receive Compound 1 (dosed as a [Compound 1:HCl:3H2O]) either at 100 mg q.d. or 50 mg b.i.d. doses in a blinded fashion; subjects on 50 mg q.d. who have not achieved 20% improvement in SJC66 and TJC68 will be assigned to 100 mg q.d. and subjects on 25 mg b.i.d. that have not achieved a 20% improvement in SJC66 and TJC68 will be assigned to 50 mg b.i.d. Subjects who switch treatment at week 12 are handled as if they discontinued at week 12 for the purpose of statistical analysis, whereas subjects in the other groups will maintain their randomized treatment until Week 24.
Creatinine levels determination is available at Quest Diagnostics, Clinical Trials, Quest House, 125-135 Staines Road, Hounslow, Middlesex, TW3 3JB, United Kingdom under Catalogue n# 82565. For Study 3, the data are obtained at BARC Europe, 3B,Industrie Park, Zwijnaarde, B-9052 Ghent, Belgium.
The Enzymatic method is based on the determination of sarcosine after conversion of creatinine with the aid of creatininase, creatinase, and sarcosine oxidase. The liberated hydrogen peroxide reacts with 4-aminophenazone and HTIB to form a quinone imine chromogen. The reaction is catalyzed by peroxidase. The color intensity is directly proportional to concentration of creatinine present and can be measured photometrically.

[1] = 2 × 25 mg b.i.d. (N = 86), week 0
[2] = 2 × 25 mg b.i.d. (N = 86), week 1
[3] = 2 × 25 mg b.i.d. (N = 86), week 2
[4] = 2 × 25 mg b.i.d. (N = 86), week 4
[5] = 2 × 25 mg b.i.d. (N = 86), week 8
[6] = 2 × 25 mg b.i.d. (N = 86), week 12
[7] = 2 × 50 mg b.i.d. (N = 85), week 0
[8] = 2 × 50 mg b.i.d. (N = 85), week 1
[9] = 2 × 50 mg b.i.d. (N = 85), week 2
[10] = 2 × 50 mg b.i.d. (N = 85), week 4
[11] = 2 × 50 mg b.i.d. (N = 85), week 8
[12] = 2 × 50 mg b.i.d. (N = 85), week 12
[13] = 2 × 100 mg b.i.d. (N = 84), week 0
[14] = 2 × 100 mg b.i.d. (N = 84), week 1
[15] = 2 × 100 mg b.i.d. (N = 84), week 2
[16] = 2 × 100 mg b.i.d. (N = 84), week 4
[17] = 2 × 100 mg b.i.d. (N = 84), week 8
[18] = 2 × 100 mg b.i.d. (N = 84), week 12
[19] = continued 50 mg q.d. (N = 63), week 0
[20] = continued 50 mg q.d. (N = 63), week 1
[21] = continued 50 mg q.d. (N = 63), week 2
[22] = continued 50 mg q.d. (N = 63), week 24
[23] = placebo switched to 50 mg b.i.d. at week 12 (N = 15), week 16
[24] = placebo switched to 50 mg b.i.d. at week 12 (N = 15), week 20
[25] = placebo switched to 50 mg b.i.d. at week 12 (N = 15), week 24

Q: How did the “Creatinine Mean CFB” value (50 mg q.d. (N = 82), week 0) turn out when `O=C(Nc1nc2cccc(-c3ccc(CN4CCS(=O)(=O)CC4)cc3)n2n1)C1CC1` [Compound 1, cyclopropanecarboxylic acid {5-[4-(1,1-dioxo-thiomorpholin-4-ylmethyl)-phenyl]-[1,2,4]triazolo[1,5-a]pyridin-2-yl}-amide] was run?
A: Its value is 0 µmol/L.

Q: What about the “Creatinine Mean percentage CFB” value (50 mg q.d. (N = 82), week 0) of the same molecule?
A: The value was 0%.

Q: What about the “Creatinine Mean CFB” value (50 mg q.d. (N = 82), week 1) of the same molecule?
A: Its value is 1 µmol/L.

Q: What about the “Creatinine Mean percentage CFB” value (50 mg q.d. (N = 82), week 1) of the same molecule?
A: Its value is 3%.

Q: And the “Creatinine Mean CFB” value (50 mg q.d. (N = 82), week 2)?
A: The value was 1 µmol/L.

Q: And the “Creatinine Mean percentage CFB” value (50 mg q.d. (N = 82), week 2)?
A: The value was 2%.

Q: What about the “Creatinine Mean CFB” value (50 mg q.d. (N = 82), week 4) of the same molecule?
A: Its value is 1 µmol/L.

Q: And the “Creatinine Mean percentage CFB” value (50 mg q.d. (N = 82), week 4)?
A: Its value is 3%.

Q: What about the “Creatinine Mean CFB” value (50 mg q.d. (N = 82), week 8) of the same molecule?
A: The value was 2 µmol/L.

Q: What about the “Creatinine Mean percentage CFB” value (50 mg q.d. (N = 82), week 8) of the same molecule?
A: Its value is 4%.

Q: And the “Creatinine Mean CFB” value (50 mg q.d. (N = 82), week 12)?
A: The value was 2 µmol/L.

Q: What about the “Creatinine Mean percentage CFB” value (50 mg q.d. (N = 82), week 12) of the same molecule?
A: The value was 3%.

Q: And the “Creatinine Mean CFB” value (100 mg q.d. (N = 85), week 0)?
A: The value was 0 µmol/L.

Q: What about the “Creatinine Mean percentage CFB” value (100 mg q.d. (N = 85), week 0) of the same molecule?
A: The value was 0%.

Q: What about the “Creatinine Mean CFB” value (100 mg q.d. (N = 85), week 1) of the same molecule?
A: The value was 2 µmol/L.

Q: And the “Creatinine Mean percentage CFB” value (100 mg q.d. (N = 85), week 1)?
A: Its value is 4%.

Q: What about the “Creatinine Mean CFB” value (100 mg q.d. (N = 85), week 2) of the same molecule?
A: Its value is 3 µmol/L.

Q: And the “Creatinine Mean percentage CFB” value (100 mg q.d. (N = 85), week 2)?
A: The value was 5%.

Q: And the “Creatinine Mean CFB” value (100 mg q.d. (N = 85), week 4)?
A: Its value is 2 µmol/L.

Q: What about the “Creatinine Mean percentage CFB” value (100 mg q.d. (N = 85), week 4) of the same molecule?
A: Its value is 4%.

Q: And the “Creatinine Mean CFB” value (100 mg q.d. (N = 85), week 8)?
A: Its value is 2 µmol/L.

Q: And the “Creatinine Mean percentage CFB” value (100 mg q.d. (N = 85), week 8)?
A: Its value is 4%.

Q: And the “Creatinine Mean CFB” value (100 mg q.d. (N = 85), week 12)?
A: The value was 4 µmol/L.

Q: And the “Creatinine Mean percentage CFB” value (100 mg q.d. (N = 85), week 12)?
A: Its value is 7%.

Q: What about the “Creatinine Mean CFB” value (200 mg q.d. (N = 86), week 0) of the same molecule?
A: Its value is 0 µmol/L.

Q: What about the “Creatinine Mean percentage CFB” value (200 mg q.d. (N = 86), week 0) of the same molecule?
A: Its value is 0%.

Q: What about the “Creatinine Mean CFB” value (200 mg q.d. (N = 86), week 1) of the same molecule?
A: Its value is 3 µmol/L.

Q: What about the “Creatinine Mean percentage CFB” value (200 mg q.d. (N = 86), week 1) of the same molecule?
A: The value was 6%.

Q: What about the “Creatinine Mean CFB” value (200 mg q.d. (N = 86), week 2) of the same molecule?
A: The value was 3 µmol/L.

Q: And the “Creatinine Mean percentage CFB” value (200 mg q.d. (N = 86), week 2)?
A: The value was 6%.

Q: What about the “Creatinine Mean CFB” value (200 mg q.d. (N = 86), week 4) of the same molecule?
A: Its value is 4 µmol/L.

Q: And the “Creatinine Mean percentage CFB” value (200 mg q.d. (N = 86), week 4)?
A: The value was 7%.

Q: What about the “Creatinine Mean CFB” value (200 mg q.d. (N = 86), week 8) of the same molecule?
A: Its value is 4 µmol/L.

Q: What about the “Creatinine Mean percentage CFB” value (200 mg q.d. (N = 86), week 8) of the same molecule?
A: Its value is 7%.

Q: What about the “Creatinine Mean CFB” value (200 mg q.d. (N = 86), week 12) of the same molecule?
A: The value was 4 µmol/L.

Q: What about the “Creatinine Mean percentage CFB” value (200 mg q.d. (N = 86), week 12) of the same molecule?
A: Its value is 8%.

Q: And the “Creatinine Mean CFB” value [1]?
A: Its value is 0 µmol/L.

Q: What about the “Creatinine Mean percentage CFB” value [1] of the same molecule?
A: The value was 0%.

Q: What about the “Creatinine Mean CFB” value [2] of the same molecule?
A: The value was 1 µmol/L.

Q: What about the “Creatinine Mean percentage CFB” value [2] of the same molecule?
A: Its value is 2%.

Q: And the “Creatinine Mean CFB” value [3]?
A: The value was 1 µmol/L.

Q: What about the “Creatinine Mean percentage CFB” value [3] of the same molecule?
A: The value was 2%.

Q: What about the “Creatinine Mean CFB” value [4] of the same molecule?
A: The value was 0 µmol/L.

Q: And the “Creatinine Mean percentage CFB” value [4]?
A: The value was 2%.

Q: What about the “Creatinine Mean CFB” value [5] of the same molecule?
A: Its value is 2 µmol/L.

Q: What about the “Creatinine Mean percentage CFB” value [5] of the same molecule?
A: Its value is 3%.

Q: What about the “Creatinine Mean CFB” value [6] of the same molecule?
A: The value was 1 µmol/L.

Q: And the “Creatinine Mean percentage CFB” value [6]?
A: The value was 3%.

Q: And the “Creatinine Mean CFB” value [7]?
A: The value was 0 µmol/L.

Q: And the “Creatinine Mean percentage CFB” value [7]?
A: The value was 0%.

Q: And the “Creatinine Mean CFB” value [8]?
A: The value was 3 µmol/L.

Q: What about the “Creatinine Mean percentage CFB” value [8] of the same molecule?
A: Its value is 5%.

Q: What about the “Creatinine Mean CFB” value [9] of the same molecule?
A: The value was 4 µmol/L.

Q: What about the “Creatinine Mean percentage CFB” value [9] of the same molecule?
A: The value was 6%.

Q: And the “Creatinine Mean CFB” value [10]?
A: The value was 3 µmol/L.

Q: What about the “Creatinine Mean percentage CFB” value [10] of the same molecule?
A: Its value is 5%.

Q: What about the “Creatinine Mean CFB” value [11] of the same molecule?
A: The value was 3 µmol/L.

Q: And the “Creatinine Mean percentage CFB” value [11]?
A: Its value is 6%.

Q: And the “Creatinine Mean CFB” value [12]?
A: Its value is 4 µmol/L.

Q: What about the “Creatinine Mean percentage CFB” value [12] of the same molecule?
A: The value was 7%.

Q: And the “Creatinine Mean CFB” value [13]?
A: The value was 0 µmol/L.

Q: What about the “Creatinine Mean percentage CFB” value [13] of the same molecule?
A: Its value is 0%.

Q: And the “Creatinine Mean CFB” value [14]?
A: Its value is 5 µmol/L.

Q: And the “Creatinine Mean percentage CFB” value [14]?
A: Its value is 8%.

Q: What about the “Creatinine Mean CFB” value [15] of the same molecule?
A: Its value is 4 µmol/L.

Q: What about the “Creatinine Mean percentage CFB” value [15] of the same molecule?
A: Its value is 8%.

Q: And the “Creatinine Mean CFB” value [16]?
A: Its value is 4 µmol/L.

Q: And the “Creatinine Mean percentage CFB” value [16]?
A: The value was 8%.

Q: What about the “Creatinine Mean CFB” value [17] of the same molecule?
A: Its value is 7 µmol/L.

Q: And the “Creatinine Mean percentage CFB” value [17]?
A: Its value is 12%.

Q: And the “Creatinine Mean CFB” value [18]?
A: Its value is 6 µmol/L.

Q: And the “Creatinine Mean percentage CFB” value [18]?
A: The value was 12%.

Q: And the “Creatinine Mean CFB” value [19]?
A: The value was 0.0 µmol/L.

Q: What about the “Creatinine Mean percentage CFB” value [19] of the same molecule?
A: Its value is 0.0%.

Q: What about the “Creatinine Mean CFB” value [20] of the same molecule?
A: Its value is 1.4 µmol/L.

Q: And the “Creatinine Mean percentage CFB” value [20]?
A: The value was 3.0%.

Q: And the “Creatinine Mean CFB” value [21]?
A: Its value is 0.7 µmol/L.

Q: And the “Creatinine Mean percentage CFB” value [21]?
A: Its value is 1.6%.

Q: And the “Creatinine Mean CFB” value [22]?
A: The value was 0.6 µmol/L.

Q: And the “Creatinine Mean percentage CFB” value [22]?
A: The value was 2.1%.

Q: And the “Creatinine Mean CFB” value [23]?
A: Its value is 4.2 µmol/L.

Q: And the “Creatinine Mean percentage CFB” value [23]?
A: Its value is 8.2%.

Q: What about the “Creatinine Mean CFB” value [24] of the same molecule?
A: Its value is 3.6 µmol/L.

Q: And the “Creatinine Mean percentage CFB” value [24]?
A: Its value is 7.2%.

Q: And the “Creatinine Mean CFB” value [25]?
A: Its value is 4.6 µmol/L.

Q: What about the “Creatinine Mean percentage CFB” value [25] of the same molecule?
A: Its value is 8.7%.
